Assay results: patent US9247740B2, “Isoxazoline derivatives as insecticidal compounds” (Syngenta Participations AG, priority 2011, dated 2016)

Legend:
Format in all cases: in vivo
[1] = tested on: Tetranychus urticae (Two-Spotted Spider Mite); assay: Tetranychus urticae leaf disc spray test; details: foliar, 192 h, 200 ppm spray on bean leaf discs, mixed ages, egg, larval and adult mortality 8 days later
Text: (§1) This Example illustrates the insecticidal and acaricidal properties of compounds of formula (I).

[2] = tested on: Diabrotica balteata (Corn Root Worm); assay: Diabrotica balteata larval test on artificial diet; details: 120 h, 200 ppm (concentration in well 18 ppm), L2 larvae, larval mortality and growth regulation after 5 days
Text: as §1

[3] = tested on: Heliothis virescens (Tobacco Budworm); assay: Heliothis virescens egg test on artificial diet; details: 96 h, 200 ppm (concentration in well 18 ppm), eggs 0-24 h old on artificial diet, egg mortality, larval mortality, growth regulation after 4 days
Text: as §1

[4] = tested on: Spodoptera littoralis (Egyptian Cotton Leafworm); assay: Spodoptera littoralis leaf disc spray test; details: foliar, 72 h, 200 ppm spray on cotton leaf discs, mortality, feeding behavior, growth regulation 3 days after treatment
Description: This Example illustrates the insecticidal and acaricidal properties of compounds of formula (I). Tests were performed as follows:

[5] = tested on: Plutella xylostella (Diamond Back Moth); assay: Plutella xylostella larval test on artificial diet; details: 144 h, 200 ppm (concentration in well 18 ppm), L2 larvae, larval mortality and growth regulation after 6 days
Text: as §1

[6] = tested on: Thrips tabaci (Onion Thrips); assay: Thrips tabaci leaf disc spray test; details: foliar, 168 h, 200 ppm spray on sunflower leaf discs, mixed ages, mortality after 7 days
Text: as §1

Measured: pest or weed control at 200 ppm

Cc1cc(C2=NOC(c3cn(CC(F)F)cc3C(C)(C)C)(C(F)(F)F)C2)ccc1C(=O)NC1CSC1 (stereo not shown) [Compound C005, 4-[5-[4-tert-butyl-1-(2,2-difluoroethyl)pyrrol-3-yl]-5-(trifluoromethyl)-4H-isoxazol-3-yl]-2-methyl-N-(thietan-3-yl)benzamide]
not listed: [6]
≥ 80%: all other assays above

O=C(NC1CSC1)c1ccc(C2=NOC(c3cc(Cl)cc(Cl)c3)(C(F)(F)F)C2)c([N+](=O)[O-])c1 (stereo not shown) [Compound B55, 4-[5-(3,5-dichlorophenyl)-5-trifluoromethyl-4H-isoxazol-3-yl]-3-nitro-N-(thietan-3-yl)benzamide]
≥ 80%: [2] | [3] | [4] | [5]

Cc1cc(C2=NOC(c3c[nH]c(C(F)(F)F)c3)(C(F)(F)F)C2)ccc1C(=O)NC1C[S+]([O-])C1 (stereo not shown) [Compound C009, 2-methyl-N-(1-oxothietan-3-yl)-4-[5-(trifluoromethyl)-5-[5-(trifluoromethyl)-1H-pyrrol-3-yl]-4H-isoxazol-3-yl]benzamide]
≥ 80%: [1] | [6] | [5]

Cc1cc(C2=NOC(c3c[nH]c(C(F)(F)F)c3)(C(F)(F)F)C2)ccc1C(=O)NC1CS(=O)(=O)C1 (stereo not shown) [Compound C008, N-(1,1-dioxothietan-3-yl)-2-methyl-4-[5-(trifluoromethyl)-5-[5-(trifluoromethyl)-1H-pyrrol-3-yl]-4H-isoxazol-3-yl]benzamide]
≥ 80%: [1] | [6] | [3]

Cc1cc(C2=NOC(c3cc(C(C)(C)C)c[nH]3)(C(F)(F)F)C2)ccc1C(=O)NC1CSC1 (stereo not shown) [Compound C003, 4-[5-(4-tert-butyl-1H-pyrrol-2-yl)-5-(trifluoromethyl)-4H-isoxazol-3-yl]-2-methyl-N-(thietan-3-yl)benzamide]
≥ 80%: [3]

Cc1cc(C2=[N+]([O-])OC(c3cc(Cl)cc(Cl)c3)(C(F)(F)F)C2)ccc1C(=O)NC1CS(=O)(=O)C1 (stereo not shown) [Compound C012, 4-[5-(3,5-dichlorophenyl)-2-oxido-5-(trifluoromethyl)-4H-isoxazol-2-ium-3-yl]-N-(1,1-dioxothietan-3-yl)-2-methyl-benzamide]
not listed: [6]
≥ 80%: all other assays above

Nc1cc(C2=NOC(c3cc(Cl)cc(Cl)c3)(C(F)(F)F)C2)ccc1C(=O)NC1CSC1 (stereo not shown) [Compound B57, 4-[5-(3,5-dichlorophenyl)-5-trifluoromethyl-4H-isoxazol-3-yl]-2-amino-N-(thietan-3-yl)benzamide]
not listed: [6]
≥ 80%: all other assays above

Cc1cc(C2=NOC(c3c[nH]c(C(F)(F)F)c3)(C(F)(F)F)C2)ccc1C(=O)NC1CSC1 (stereo not shown) [Compound C010, 2-methyl-N-(thietan-3-yl)-4-[5-(trifluoromethyl)-5-[5-(trifluoromethyl)-1H-pyrrol-3-yl]-4H-isoxazol-3-yl]benzamide]
≥ 80%: [1] | [6]

Cc1cc(C2=[N+]([O-])OC(c3cc(Cl)cc(Cl)c3)(C(F)(F)F)C2)ccc1C(=O)NC1CSC1 (stereo not shown) [Compound C011, 4-[5-(3,5-dichlorophenyl)-2-oxido-5-(trifluoromethyl)-4H-isoxazol-2-ium-3-yl]-2-methyl-N-(thietan-3-yl)benzamide]
≥ 80%: [2] | [3] | [4]
